From PMC3004914, “Classification of Drugs Based on Properties of Sodium Channel Inhibition: A Comparative Automated Patch-Clamp Study” (PLoS ONE, 2010)
“And” between values parts separate entries of the source, which are not always exact repeats. Equal values may be shown once. Read-outs that look alike come from different tables or passages of the source.

How the values were obtained:
[1] = target: T1, rNav1.2 sodium channels (HEK-293 cells) (Rattus norvegicus, UniProt P04775); experiment: steady-state inactivation protocol (availability curves), QPatch automated patch-clamp; type: cell-based
T1 sequence (P04775 whole entry, the tested form may be a part): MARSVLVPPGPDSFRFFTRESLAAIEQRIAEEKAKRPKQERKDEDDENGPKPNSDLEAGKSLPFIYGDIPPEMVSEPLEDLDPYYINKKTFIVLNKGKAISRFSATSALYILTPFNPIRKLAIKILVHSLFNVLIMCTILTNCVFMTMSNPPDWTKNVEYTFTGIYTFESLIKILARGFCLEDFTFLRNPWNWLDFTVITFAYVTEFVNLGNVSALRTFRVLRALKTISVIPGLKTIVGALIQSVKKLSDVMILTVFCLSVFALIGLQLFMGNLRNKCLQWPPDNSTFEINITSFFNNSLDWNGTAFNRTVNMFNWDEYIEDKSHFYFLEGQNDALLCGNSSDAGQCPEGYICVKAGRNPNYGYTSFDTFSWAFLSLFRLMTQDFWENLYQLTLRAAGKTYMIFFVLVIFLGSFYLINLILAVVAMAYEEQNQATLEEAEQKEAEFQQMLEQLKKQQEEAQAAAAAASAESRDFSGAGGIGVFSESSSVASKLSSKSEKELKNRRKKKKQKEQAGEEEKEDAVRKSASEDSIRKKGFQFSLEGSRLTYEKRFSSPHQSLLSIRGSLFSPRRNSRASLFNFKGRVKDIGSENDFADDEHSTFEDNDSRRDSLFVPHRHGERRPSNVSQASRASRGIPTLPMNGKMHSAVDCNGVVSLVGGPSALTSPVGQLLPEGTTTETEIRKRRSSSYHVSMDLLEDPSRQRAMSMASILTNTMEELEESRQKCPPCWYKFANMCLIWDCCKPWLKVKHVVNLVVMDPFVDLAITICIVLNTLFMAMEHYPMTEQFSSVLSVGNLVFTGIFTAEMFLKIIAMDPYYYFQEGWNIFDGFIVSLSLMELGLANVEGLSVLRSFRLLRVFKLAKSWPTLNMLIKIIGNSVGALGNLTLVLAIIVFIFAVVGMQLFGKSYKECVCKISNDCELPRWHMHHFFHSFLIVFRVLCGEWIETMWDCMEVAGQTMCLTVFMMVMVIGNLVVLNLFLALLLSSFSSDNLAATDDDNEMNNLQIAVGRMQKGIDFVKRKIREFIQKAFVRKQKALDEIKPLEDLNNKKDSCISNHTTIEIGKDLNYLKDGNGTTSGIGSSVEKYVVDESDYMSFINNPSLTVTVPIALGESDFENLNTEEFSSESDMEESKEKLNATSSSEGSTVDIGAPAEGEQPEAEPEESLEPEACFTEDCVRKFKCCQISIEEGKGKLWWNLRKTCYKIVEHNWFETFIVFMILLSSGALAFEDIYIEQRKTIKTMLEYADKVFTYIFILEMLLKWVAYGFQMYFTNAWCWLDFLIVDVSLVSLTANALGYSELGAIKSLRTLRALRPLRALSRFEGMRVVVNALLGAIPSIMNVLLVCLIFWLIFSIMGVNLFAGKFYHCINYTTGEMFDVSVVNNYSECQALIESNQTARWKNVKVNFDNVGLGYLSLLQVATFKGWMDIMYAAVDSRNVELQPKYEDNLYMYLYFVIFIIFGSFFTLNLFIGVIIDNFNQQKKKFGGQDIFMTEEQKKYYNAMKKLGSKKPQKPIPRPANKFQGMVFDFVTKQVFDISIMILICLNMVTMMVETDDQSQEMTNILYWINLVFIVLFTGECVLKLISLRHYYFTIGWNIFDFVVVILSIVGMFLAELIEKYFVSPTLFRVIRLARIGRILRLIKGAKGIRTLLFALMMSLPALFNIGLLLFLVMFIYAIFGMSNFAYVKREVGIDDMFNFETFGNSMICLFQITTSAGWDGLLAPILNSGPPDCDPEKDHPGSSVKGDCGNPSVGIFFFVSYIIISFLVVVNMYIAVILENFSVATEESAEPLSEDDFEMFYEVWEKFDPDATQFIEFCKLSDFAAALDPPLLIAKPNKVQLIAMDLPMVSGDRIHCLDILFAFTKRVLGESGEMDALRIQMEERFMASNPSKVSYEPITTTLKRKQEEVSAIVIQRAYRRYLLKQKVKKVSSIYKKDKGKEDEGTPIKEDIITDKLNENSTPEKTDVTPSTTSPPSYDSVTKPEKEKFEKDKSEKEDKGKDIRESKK
From the text: (§1) A)–D) Peak amplitudes of evoked currents (5 Hz trains of 5 depolarizations from −90 to −10 mV) are plotted against time. Black dots: Control. Grey dots: Drug perfusion. […] Calculation of properties of inhibition is illustrated. […] E) Calculation of Kr and Ki values from steady-state availability curves.
Standard steady-state inactivation protocols were used to measure the shift of steady-state availability curve caused by the drugs. Currents were evoked by a 10 ms test pulse to −10 mV, preceded by 400 ms pre-pulses from −150 to −30 mV. […] Because the inhibition at hyperpolarized potentials (Inh−150), and the shift of the availability curves (ΔV1/2) are both concentration-dependent properties, we calculated affinities to hyperpolarized and depolarized states (“resting state affinity”: Kr, and “inactivated state affinity”: Ki), which, on the other hand, are concentration-independent characteristics of individual drugs. Calculation of Kr and Ki values are described in Materials and Methods, and illustrated in Figure 1E. State-dependence (SD) was quantified as the ratio Kr/Ki.
(§2) HEK-293 cells stably expressing rNav1.2 sodium channels were obtained from NeuroSearch (Ballerup, Denmark).
(§3) Cells were automatically prepared for application to the chips (centrifuged and washed twice, then resuspended in extracellular solution) as described previously. Composition of the extracellular solution was: (in mM): 140 NaCl, 3 KCl, 1 CaCl2, 1 MgCl2, 0.1 CdCl2, 20 TEA-Cl, 5 HEPES, adjusted to pH 7.3, Osmolality: ∼320 mOsm.
(§4) All electrophysiological experiments were conducted on Qpatch-16 or QPatch HT instruments using QPlate™ chips. For a detailed description of the instrument and the patch-clamp chips see [37], [38]. Data were sampled at a frequency of 25 kHz and filtered at 5 kHz. […] The amplifier was controlled and the data were collected by the Sophion QPatch client software. For initial data analysis the QPatch software was used. Built-in amplifiers provide an improved method for series resistance compensation. Leak subtraction (based on a standard P/n protocol) was used to subtract the capacitive component of currents.
Inactivated affinity (Ki) values were calculated assuming a simple four-state model of drug binding and channel gating, using two separate methods: (1) from the shift of the availability curve (ΔV1/2), the slope of the Boltzmann fit of the availability curve (k) and Kr, using the formula described by Bean, Cohen and Tsien (Ki−ΔV1/2; see Figure 1E), or (2) from the apparent affinity (Kapp) at a certain pre-pulse potential, which was calculated from the inhibition (e.g. Inh−60) as described above, and the availability (h) at the same pre-pulse potential, using the formula from Kuo and Bean (Figure 1E). […] (Arithmetic means and SEM values are given in Results S7.)

[2] = target: sodium channels; conditions: cited from earlier work; for Ki: read-out: Ki−Lit; for Kd: read-out: Kr−Lit
[3] = target: T1, rNav1.2 sodium channels (HEK-293 cells); experiment: 5 Hz train protocol, QPatch automated patch-clamp; type: cell-based; conditions: for Rev (reversibility): Rev = A5/A1 after washout; for potency estimated from few doses: −90 mV;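 on UD (use-dependence of the inhibition): UD = (A3/A4)/(A1/A2) as ratios of peak amplitudes from Figure 1A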
From the text: The dynamics of the onset and offset of inhibition was monitored using 5 Hz trains of five depolarizing pulses from a holding potential of −90 mV to −10 mV. The trains were repeated every 20 s. Drugs were applied after 10 control trains and 10 trains were delivered in the presence of the drug. The drug was then washed out, and the 10 trains were repeated.
We measured inhibition (Inh; from which we calculated IC50 values as described in Materials and Methods), reversibility of inhibition (Rev) and use-dependence (UD), as well as time constant of onset (τon) and offset (τoff). The calculation of IC50, quantification of Rev and UD, and the determination of time constants are illustrated in Figure 1A. Because τon should be concentration-dependent if we assume a single binding reaction, we excluded it from the analyses. […] Comments on the interpretation of these properties (Rev, […] and UD) are in Results S1.
as §1, §2, §3, §4
From this protocol we extracted five parameters, as illustrated in Figure 1A. We calculated inhibition of a single “cc” concentration: Inh = (amplitudectr – amplitudedrug)/amplitudectr.

[4] = human plasma, cited from earlier work
[5] = HEK293, 100 µM, read-out: Inh (inhibited fraction) at holding potential −150 mV
[6] = arithmetic mean, 100 µM, read-out: Ki-Kapp arith
[7] = arithmetic mean, 100 µM, read-out: Ki-ΔV1/2 arith
[8] = arithmetic mean, 100 µM, read-out: Kr arith
[9] = geometric mean, from Inh at −150 mV, 100 µM, read-out: Kr (resting state affinity)
[10] = geometric mean, from apparent affinity, 100 µM, read-out: Ki−Kapp (inactivated state affinity)
[11] = geometric mean, from shift of availability curve, 100 µM, read-out: Ki−ΔV1/2 (inactivated state affinity)
[12] = 100 μM, 500 s assigned where irreversible
[13] = HEK293, 100 μM, −90 mV holding potential, 5 Hz train, read-out: Inh (inhibited fraction)
[14] = HEK293, calculated from Inh at single concentration 100 μM, 5 Hz train, read-out: IC50
[15] = HEK293, 30 µM, read-out: Inh (inhibited fraction) at holding potential −150 mV
[16] = arithmetic mean, 30 µM, read-out: Ki-Kapp arith
[17] = arithmetic mean, 30 µM, read-out: Ki-ΔV1/2 arith
[18] = arithmetic mean, 30 µM, read-out: Kr arith
[19] = geometric mean, from Inh at −150 mV, 30 µM, read-out: Kr (resting state affinity)
[20] = geometric mean, from apparent affinity, 30 µM, read-out: Ki−Kapp (inactivated state affinity)
[21] = geometric mean, from shift of availability curve, 30 µM, read-out: Ki−ΔV1/2 (inactivated state affinity)
[22] = 30 μM, 500 s assigned where irreversible
[23] = HEK293, 30 μM, −90 mV holding potential, 5 Hz train, read-out: Inh (inhibited fraction)
[24] = HEK293, calculated from Inh at single concentration 30 μM, 5 Hz train, read-out: IC50

τon ([3]; 100 μM)	UD (use-dependence of the inhibition) ([3]; 100 μM, 5 Hz train)	τoff [3, 12]	ΔV1/2 (shift of availability curve) ([1]; 30 μM)	inhibition at 30 µM [1, 15]	Ki [1, 16]	Ki [1, 17]	Kd [1, 18]	Kd [1, 19]	Ki [1, 20]	Ki [1, 21]	τon ([3]; 30 μM)	UD (use-dependence of the inhibition) ([3]; 30 μM, 5 Hz train)	τoff [3, 22]	Rev (reversibility) ([3]; 30 μM)	potency estimated from few doses [3, 24]	Compound	Ki ([2]; averaged literature data)	Kd ([2]; averaged literature data)	plasma conc. ([4]; as printed in each cell)	plasma conc. ([4]; as printed in the µg/ml cell)	other results
5.74 s	1.24	6.78 s														Nc1c(Br)cc(Br)cc1CN[C@H]1CC[C@H](O)CC1 [AMB, Ambroxol]	8.17 µM	110 µM			inhibition at 100 µM [1, 5]: 33%; Ki [1, 6]: 18.6 µM; Ki [1, 7]: 12.8 µM; Kd [1, 8]: 201 µM; Kd [1, 9]: 201 µM; Ki [1, 10]: 17.6 µM; Ki [1, 11]: 12.2 µM; Rev (reversibility) ([3]; 100 μM): 0.81; inhibition at 100 µM [3, 13]: 51%; potency estimated from few doses [3, 14]: 95.9 µM
			−11.4 mV	55%	1.63 µM	8.99 µM	32.1 µM	24.2 µM	0.73 µM	1.99 µM	32.07 s	1.46	35.99 s	0.34	16.2 µM	Fc1ccc([C@@H]2CCNC[C@H]2COc2ccc3c(c2)OCO3)cc1 [PRX, Paroxetine]	1.45 µM	17 µM	0.38 [44] µg/ml		inhibition at 30 µM [3, 23]: 65%
			−18.4 mV	32%	1.03 µM	0.33 µM	85.8 µM	69.6 µM	0.82 µM	0.29 µM	14.81 s	1.30	9.67 s	0.07	47.3 µM	CN(C)CCCN1c2ccccc2Sc2ccc(Cl)cc21 [CPM, Chlorpromazine]	0.19 µM	3.18 µM	0.1 [44] µg/ml	0.281 µM	inhibition at 30 µM [3, 23]: 41%
7.95 s	1.62	16.73 s														CCCCN1CCCCC1C(=O)Nc1c(C)cccc1C (centres unmarked) [BPV, Bupivacaine]	20.1 µM	291 µM	0.8 [44] µg/ml	2.462 µM	ΔV1/2 (shift of availability curve) ([1]; 100 μM): −11.3 mV; inhibition at 100 µM [1, 5]: 14%; Ki [1, 6]: 8.21 µM; Ki [1, 7]: 6.46 µM; Kd [1, 8]: 635 µM; Kd [1, 9]: 619 µM; Ki [1, 10]: 7.79 µM; Ki [1, 11]: 5.85 µM; Rev (reversibility) ([3]; 100 μM): 0.75; use-dependence (UD) ([3]; 5 Hz train): high use-dependence; inhibition at 100 µM [3, 13]: 60%; potency estimated from few doses [3, 14]: 67.7 µM
			−7.28 mV	13%	6.52 µM	7.69 µM	225 µM	206 µM	6.1 µM and 6.13 µM	7.1 µM	14.38 s	1.09	22.28 s	0.37	23.6 µM	Cc1nc2sccn2c(=O)c1CCN1CCC(=C(c2ccc(F)cc2)c2ccc(F)cc2)CC1 [RIT, Ritanserin]			0.14 [54] µg/ml	0.299 µM	
																O=C(NCC1CCCCN1)c1cc(OCC(F)(F)F)ccc1OCC(F)(F)F (centres unmarked) [FLC, Flecainide]	5.55 µM	355 µM			inhibition at 300 µM ([1]; HEK293, 300 µM, read-out: Inh (inhibited fraction) at holding potential −150 mV): 82%; Ki ([1]; arithmetic mean, 300 µM, read-out: Ki-Kapp arith): 6.1 µM; Ki ([1]; arithmetic mean, 300 µM, read-out: Ki-ΔV1/2 arith): 9.72 µM; Kd ([1]; arithmetic mean, 300 µM, read-out: Kr arith): 65 µM; Kd ([1]; geometric mean, from Inh at −150 mV, 300 µM, read-out: Kr (resting state affinity)): 64.7 µM; Ki ([1]; geometric mean, from apparent affinity, 300 µM, read-out: Ki−Kapp (inactivated state affinity)): 5.7 µM; Ki ([1]; geometric mean, from shift of availability curve, 300 µM, read-out: Ki−ΔV1/2 (inactivated state affinity)): 7.9 µM; Kr ([1]; in words): low Kr; difference between Kr and IC50 [3]: no difference; τoff ([3]; 300 μM): 64.97 s; τon ([3]; 300 μM, 3 s assigned where too short to be resolved): 20.04 s; UD (use-dependence of the inhibition) ([3]; 300 μM, 5 Hz train): 1.34; Rev (reversibility) ([3]; 300 μM): 0.57; use-dependence (UD) ([3]; 5 Hz train): high; inhibition at 300 µM ([3]; HEK293, 300 μM, −90 mV holding potential, 5 Hz train, read-out: Inh (inhibited fraction)): 82%; potency estimated from few doses ([3]; HEK293, calculated from Inh at single concentration 300 μM, 5 Hz train, read-out: IC50): 67.6 µM
			−15.8 mV	20%	2.21 µM	1.14 µM	144 µM	128 µM	1.74 µM	0.73 µM	7.24 s	1.25	14.41 s	0.18	42.5 µM	CN(C)CC/C=C1/c2ccccc2Sc2ccc(Cl)cc21 [CHX, Chlorprothixene]			0.07 [50] µg/ml	0.200 µM	inhibition at 30 µM [3, 23]: 28%
																CN(C)CCCN1c2ccccc2CCc2ccccc21 [IMI, Imipramine]	0.89 µM	26.5 µM	0.2 [44] µg/ml	0.631 µM	

Compound	τon ([3]; 100 μM)	UD (use-dependence of the inhibition) ([3]; 100 μM, 5 Hz train)	τoff [3, 12]	ΔV1/2 (shift of availability curve) ([1]; 30 μM)	inhibition at 30 µM [1, 15]	Ki [1, 16]	Ki [1, 17]	Kd [1, 18]	Kd [1, 19]	Ki [1, 20]	Ki [1, 21]	τon ([3]; 30 μM)	UD (use-dependence of the inhibition) ([3]; 30 μM, 5 Hz train)	τoff [3, 22]	Rev (reversibility) ([3]; 30 μM)	potency estimated from few doses [3, 24]	Ki ([2]; averaged literature data)	Kd ([2]; averaged literature data)	plasma conc. ([4]; as printed in each cell)	plasma conc. ([4]; as printed in the µg/ml cell)	other results
COc1ccc(C(CN(C)C)C2(O)CCCCC2)cc1 (centres unmarked) [VFX, Venlafaxine]	4.85 s	1.05	5.2 s														0.64 µM		0.17 [44] µg/ml	0.532 µM	ΔV1/2 (shift of availability curve) ([1]; 100 μM): −4.66 mV; inhibition at 100 µM ([1]; HEK293, read-out: Inh (inhibited fraction) at holding potential −150 mV): 11%; Ki ([1]; Ki-Kapp arith, arithmetic mean, 100 µM): 72.8 µM; Ki ([1]; Ki-ΔV1/2 arith, arithmetic mean, 100 µM): 75.8 µM; Ki ([1]; Ki−Kapp (inactivated state affinity), geometric mean, from apparent affinity, 100 µM): 63.4 µM; Ki ([1]; Ki−ΔV1/2 (inactivated state affinity), geometric mean, from shift of availability curve, 100 µM): 59.5 µM; Kd ([1]; Kr (resting state affinity), geometric mean, from Inh at −150 mV, 100 µM): 889 µM; Kd ([1]; Kr arith, arithmetic mean, 100 µM): 1000 µM; Kd [2]: 8 µM; Rev (reversibility) ([3]; 100 μM): 0.89; potency estimated from few doses ([3]; HEK293, read-out: IC50, calculated from Inh at single concentration 100 μM, 5 Hz train): 727 µM; inhibition at 100 µM ([3]; HEK293, read-out: Inh (inhibited fraction)): 12%
